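48-hour exposure; five concentrations; linearly interpolated endpoints. At the GI50, growth is halved.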 Calls of active or inactive are those of the source. Cut-off read from the data, not from the text of the source: active = GI50 up to about 1.1 µM and inactive = higher.
Key:
Test in all cases: NCI anticancer screen, dose series, 48 h
NCI-H522 = test system: NCI-H522
T47D = test system: T47D
MDA-MB-435 = test system: MDA-MB-435
HOP-92 = test system: HOP-92
A498 = test system: A498
HCT-116 = test system: HCT-116
SF-295 = test system: SF-295
HL-60 = test system: HL-60
OVCAR-8 = test system: OVCAR-8
OVCAR-5 = test system: OVCAR-5
HT-29 = test system: HT-29
SNB-75 = test system: SNB-75
U-251 = test system: U-251
PC-3 = test system: PC-3
SK-MEL-28 = test system: SK-MEL-28
ACHN = test system: ACHN
TK-10 = test system: TK-10
HCC 2998 = test system: HCC 2998
MCF7 = test system: MCF7
OVCAR-4 = test system: OVCAR-4

Compound	GI50 (NCI-H522)	GI50 (T47D)	GI50 (MDA-MB-435)	GI50 (HOP-92)	GI50 (A498)	GI50 (HCT-116)	GI50 (SF-295)	GI50 (HL-60)	GI50 (OVCAR-8)	GI50 (OVCAR-5)	GI50 (HT-29)	GI50 (SNB-75)	GI50 (U-251)	GI50 (PC-3)	GI50 (SK-MEL-28)	GI50 (ACHN)	GI50 (TK-10)	GI50 (HCC 2998)	GI50 (MCF7)	GI50 (OVCAR-4)
CC1CN=C(Nc2ccc(F)c(Cl)c2)S1 (stereo unspecified)	58.2 µM (inactive)	88.9 µM (inactive)	> 100 µM (inactive)	28.9 µM (inactive)	62.8 µM (inactive)	71 µM (inactive)	> 100 µM (inactive)	29.9 µM (inactive)	> 100 µM (inactive)	> 100 µM (inactive)	> 100 µM (inactive)	> 100 µM (inactive)	95.3 µM (inactive)	72.4 µM (inactive)	> 100 µM (inactive)	> 100 µM (inactive)	> 100 µM (inactive)	> 100 µM (inactive)	> 100 µM (inactive)	
CC(=O)O[C@H]1[C@@H](N2CCOCC2)C[C@H]2[C@@H]3CC=C4C[C@@H](N5CCCC5)CC[C@]4(C)[C@H]3CC[C@@]21C	> 100 µM (inactive)	> 100 µM (inactive)	> 100 µM (inactive)	85.9 µM (inactive)	> 100 µM (inactive)	65.8 µM (inactive)	> 100 µM (inactive)	56.4 µM (inactive)	> 100 µM (inactive)	> 100 µM (inactive)	5.21 µM (inactive)	> 100 µM (inactive)	> 100 µM (inactive)	> 100 µM (inactive)	> 100 µM (inactive)	> 100 µM (inactive)	> 100 µM (inactive)	48.8 µM (inactive)	> 100 µM (inactive)	> 100 µM (inactive)
Fc1c(F)c(F)c2c(c1F)CSc1nc3ccccc3n1-2	> 100 µM (inactive)	> 100 µM (inactive)	> 100 µM (inactive)	> 100 µM (inactive)	> 100 µM (inactive)	> 100 µM (inactive)	> 100 µM (inactive)	> 100 µM (inactive)	> 100 µM (inactive)	> 100 µM (inactive)	> 100 µM (inactive)	> 100 µM (inactive)	> 100 µM (inactive)	> 100 µM (inactive)	> 100 µM (inactive)	> 100 µM (inactive)	> 100 µM (inactive)	> 100 µM (inactive)	> 100 µM (inactive)	> 100 µM (inactive)
Cc1cc(S(=O)(=O)NC2=Nc3ccc(Cl)cc3C(c3ccccc3)N2)c(S)cc1Cl (stereo unspecified)	> 100 µM (inactive)	9.02 µM (inactive)	> 100 µM (inactive)	> 100 µM (inactive)	> 100 µM (inactive)	36.8 µM (inactive)	20.9 µM (inactive)	> 100 µM (inactive)	> 100 µM (inactive)	> 100 µM (inactive)	> 100 µM (inactive)	> 100 µM (inactive)	33.8 µM (inactive)	1.84 µM (inactive)	> 100 µM (inactive)	> 100 µM (inactive)	> 100 µM (inactive)	> 100 µM (inactive)	> 100 µM (inactive)	43.6 µM (inactive)
COc1ccccc1C(=O)Nc1ccc(Cl)c(C(=O)OC(C)C)c1	33.2 µM (inactive)	20.1 µM (inactive)	> 100 µM (inactive)	42.3 µM (inactive)	> 50.9 µM (inactive)	39.1 µM (inactive)	36.6 µM (inactive)	> 41.1 µM (inactive)	> 63 µM (inactive)	> 50 µM (inactive)	27.4 µM (inactive)	35.4 µM (inactive)	43 µM (inactive)	83.2 µM (inactive)	36.2 µM (inactive)	16 µM (inactive)	> 80 µM (inactive)	> 63.7 µM (inactive)	42 µM (inactive)	42.4 µM (inactive)
O=C1OC2(C(F)(F)F)Oc3ccccc3CN2C12CCCCC2 (stereo unspecified)	24.3 µM (inactive)	21.8 µM (inactive)	39.6 µM (inactive)	24.9 µM (inactive)	53.8 µM (inactive)	20.2 µM (inactive)	21.1 µM (inactive)	16.5 µM (inactive)	36.3 µM (inactive)	22 µM (inactive)	23.7 µM (inactive)	16 µM (inactive)	26 µM (inactive)	27.6 µM (inactive)	55.2 µM (inactive)	19.7 µM (inactive)	46.2 µM (inactive)	33.1 µM (inactive)	39.1 µM (inactive)	31.8 µM (inactive)
CC(C)(C)OC(=O)NCC(=O)N(CCc1ccc(Cl)c(Cl)c1)CCN1CCCC1	14.5 µM (inactive)	22.7 µM (inactive)	13.9 µM (inactive)	3.78 µM (inactive)	17.8 µM (inactive)	13.7 µM (inactive)	17.3 µM (inactive)	12.1 µM (inactive)	18 µM (inactive)	18.9 µM (inactive)	6.32 µM (inactive)	17.5 µM (inactive)	15.2 µM (inactive)	15.3 µM (inactive)	13 µM (inactive)	19.5 µM (inactive)	17.1 µM (inactive)	5.14 µM (inactive)	16.4 µM (inactive)	21.2 µM (inactive)
CSc1nc(-c2ccc(C)cc2)c(C#N)c(=O)[nH]1	> 100 µM (inactive)	40.5 µM (inactive)	> 100 µM (inactive)	85.3 µM (inactive)	> 100 µM (inactive)	> 100 µM (inactive)	> 100 µM (inactive)	> 100 µM (inactive)	> 100 µM (inactive)	> 100 µM (inactive)	> 100 µM (inactive)	43.7 µM (inactive)	> 100 µM (inactive)	> 100 µM (inactive)	> 100 µM (inactive)	> 100 µM (inactive)	> 100 µM (inactive)	> 100 µM (inactive)	> 100 µM (inactive)	> 100 µM (inactive)
C=C1C(=O)OC2/C=C(/C)C3(O)OC(C)(CC(OC(=O)C(C)C)C12)CC3OC(C)=O (stereo unspecified)	1.91 µM (inactive)	13 µM (inactive)	3.96 µM (inactive)	13.3 µM (inactive)	3.96 µM (inactive)	5.3 µM (inactive)	9.75 µM (inactive)	2.64 µM (inactive)	3.27 µM (inactive)	12.9 µM (inactive)	4.55 µM (inactive)	47.5 µM (inactive)	8 µM (inactive)	13.7 µM (inactive)	7.48 µM (inactive)	2.3 µM (inactive)	5.82 µM (inactive)	4.53 µM (inactive)	3.7 µM (inactive)	13.2 µM (inactive)
COC(=O)C1=Cc2cc(OC)c(O)cc2[C@@H](c2ccc(O)c(OC)c2)[C@@H]1C(=O)OC	> 100 µM (inactive)	60.5 µM (inactive)	45.5 µM (inactive)	53.7 µM (inactive)	> 100 µM (inactive)	> 100 µM (inactive)	> 100 µM (inactive)	> 100 µM (inactive)	> 100 µM (inactive)	> 100 µM (inactive)	> 100 µM (inactive)	58.1 µM (inactive)	> 100 µM (inactive)	> 100 µM (inactive)	> 100 µM (inactive)	> 100 µM (inactive)		> 100 µM (inactive)	> 100 µM (inactive)	
O=[N+]([O-])c1ccc(/C(=C\c2ccccc2)Cn2ccnc2)cc1	20 µM (inactive)	34.8 µM (inactive)	34.4 µM (inactive)	18.9 µM (inactive)	20.9 µM (inactive)	23.6 µM (inactive)	32.7 µM (inactive)	19 µM (inactive)	35.9 µM (inactive)	61.5 µM (inactive)	14 µM (inactive)	27.4 µM (inactive)	33.3 µM (inactive)	24.8 µM (inactive)	59.6 µM (inactive)	29.8 µM (inactive)	32.7 µM (inactive)	68.7 µM (inactive)	19.9 µM (inactive)	40.5 µM (inactive)
C#C[C@]1(O)CC[C@H]2[C@@H]3CCC4=C/C(=N\OCCN5CCCCC5)CC[C@]4(C)[C@H]3CC[C@@]21C	2.47 µM (inactive)	2.69 µM (inactive)	2.24 µM (inactive)	15 µM (inactive)	6.15 µM (inactive)	4.31 µM (inactive)	3.56 µM (inactive)	3.19 µM (inactive)	8.02 µM (inactive)	13.5 µM (inactive)	6.67 µM (inactive)	4.3 µM (inactive)	9.68 µM (inactive)	3.39 µM (inactive)	8.13 µM (inactive)	8.3 µM (inactive)	7.28 µM (inactive)	12.8 µM (inactive)	3.34 µM (inactive)	13.6 µM (inactive)
O=C(N/C(=C\c1ccccc1)C1Nc2ccccc2C(=O)O1)c1ccccc1 (stereo unspecified)	16.3 µM (inactive)	> 100 µM (inactive)	34.5 µM (inactive)	> 100 µM (inactive)	> 100 µM (inactive)	18.3 µM (inactive)	37 µM (inactive)	12.4 µM (inactive)	21.4 µM (inactive)	> 100 µM (inactive)	32.7 µM (inactive)	38.8 µM (inactive)	22.4 µM (inactive)	> 100 µM (inactive)	23.7 µM (inactive)	39.5 µM (inactive)	> 100 µM (inactive)	19.8 µM (inactive)	45.8 µM (inactive)	53.7 µM (inactive)
COc1cccc(-c2cc(=O)c3cc(N4CCCCC4)ccc3[nH]2)c1	< 0.0177 µM (active)	> 100 µM (inactive)	< 0.01 µM (active)	13.1 µM (inactive)	0.0188 µM (active)	< 0.01 µM (active)	0.0119 µM (active)	< 0.01 µM (active)	0.026 µM (active)		< 0.0129 µM (active)	0.6 µM (active)	< 0.0147 µM (active)	< 0.0129 µM (active)	> 100 µM (inactive)	< 0.0186 µM (active)	79.3 µM (inactive)	0.0434 µM (active)	< 0.01 µM (active)	1.51 µM (inactive)

From ChEMBL document CHEMBL1201862, “PubChem BioAssay data set” (2004)
